Earlier results in patent US20050112093A1, “Combination therapy for HCV infection” (priority 2003, published 2005).

Columns and labels:
[1] = majority of patients, over the course of treatment
HCV [2] = system: HCV
HCV [3] = system: HCV; remark: listed apart in the source

Row | Compound | mean decrease in hemoglobin [1] [g/dL] | serum HCV RNA levels (HCV [2]; ribavirin treatment alone) | liver enzyme levels (HCV [2]; ribavirin used alone, during treatment, return to baseline when treatment is discontinued) | patients achieving a sustained virological response (SVR) (HCV [3]; chronic HCV infection, following six months of therapy) [%] | SVR (HCV [3]; treatment naïve patients, IFN-α alone, 6 months, the latter (upper) value representing 48 weeks of treatment)
1 | NC(=O)c1ncn([C@@H]2O[C@H](CO)[C@@H](O)[C@H]2O)n1 [ribavirin, 1-beta-D-ribofuranosyl-1H-1,2,4-triazole-3-carboxamide] | 2 to 3 | only minimally and transiently decreases serum HCV RNA levels | decreases liver enzyme levels in most patients during treatment |  | 
2 | IFN-α |  |  |  | 20 | 6-17%
